# Laboratory results reported in patent publication US20250154169A1, “COMPOUNDS AND METHODS FOR MODULATING SPLICING” (REMIX THERAPEUTICS INC., priority 2021, published 2025).
# pIC50: −log10 of the molar value. Where two headings read alike, the source gives them in different places.
# How the values were obtained:
# Type in all cases: cell-based, human
# HTT mRNA [1] = test: Splicing RT-qPCR gene panel, HTT canonical junction (CJ) mRNA; conditions: Homo sapiens, Tables 4A/4B, read-out: HTT (IC50, decrease in CJ mRNA, gene panel)
# In short: (§1)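 Cells (A673 in DMEM/10% FBS, K562 in IMDM/10% FBS) got compound for 24 h, top dose 10 uM, 11 points, 3-fold steps, DMSO ≤0.25%. Lysates went to RT-qPCR for the canonical exon-exon junction; ΔΔCt against housekeeper and DMSO gave RQ, then percentage response.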
# Target C mRNA = test: Splicing RT-qPCR gene panel, Target C canonical junction (CJ) mRNA; conditions: Homo sapiens, Tables 4A/4B, read-out: Target C (IC50, decrease in CJ mRNA, gene panel)
# In short: as §1
# HTT mRNA [2] = test: Splicing RT-qPCR assay, HTT canonical (CJ) and alternative (AJ) junction mRNA; conditions: Homo sapiens, A673 or K562 cells, 24 hours compound treatment; for pIC50: 24 h, read-out: HTT CJ (IC50, decrease in canonical junction mRNA); for AC50: read-out: HTT AJ (AC50, increase in alternative junction mRNA)
# In short: (§2)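 One-step RT-qPCR on cell lysates, CJ and AJ isoforms quantified; housekeeping normalization GAPDH/GUSB (K562) or PPIA (A673). Cells: A673 in DMEM/10% FBS or K562 in IMDM/10% FBS. Compounds 11-pt 3-fold, top 10 uM, 24 h, 37 °C, 5% CO2.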
# SMN2 mRNA = test: Splicing RT-qPCR gene panel, SMN2 canonical junction (CJ) mRNA; conditions: Homo sapiens, Tables 4A/4B, read-out: SMN2 (IC50, decrease in CJ mRNA, gene panel)
# In short: as §1
# MYB mRNA = test: Splicing RT-qPCR assay, MYB canonical (CJ) and alternative (AJ) junction mRNA; conditions: Homo sapiens; for AC50: read-out: MYB AJ (AC50, increase in alternative junction mRNA)
# In short: as §2
# [3] = 24 h, A673 or K562 cells, 24 hours compound treatment, RT-qPCR
# [4] = 24 h, A673 or K562 cells, 24 hours compound treatment, RT-qPCR, read-out: MYB CJ (IC50, decrease in canonical junction mRNA)
# [5] = Tables 4A/4B, canonical junction qPCR panel, read-out: MYB (IC50, decrease in CJ mRNA, gene panel)
SMILES,pIC50 (HTT mRNA [1]),pIC50 (Target C mRNA),pIC50 (HTT mRNA [2]),pIC50 (SMN2 mRNA),pIC50 (MYB mRNA; [4]),pIC50 (MYB mRNA; [5]),AC50 (HTT mRNA [2]),AC50 (MYB mRNA; [3])
Cc1cn2cc(NC(=O)c3ccc(N(C)C4CC(C)(C)NC(C)(C)C4)c4cn(C)nc34)cc(F)c2n1 [Compound 244],< 5.00,< 5.00,< 5.00,6.00 to 7.00,< 5.00,< 5.00,> 10000 nM,> 10000 nM
CC1=NC2C=C(NC(=O)c3ccc(N(C)C4CCN(C)CC4)c4cn(C)nc34)C=C(F)C2=N1 (centres unmarked) [Compound 245],6.00 to 7.00,6.00 to 7.00,6.00 to 7.00,> 7.00,6.00 to 7.00,6.00 to 7.00,100 to 1000 nM,100 to 1000 nM
Cc1cn2cc(NC(=O)c3ccc(N4CCC(NC(C)(C)C)C4)c4cn(C)nc34)cc(F)c2n1 (centres unmarked) [Compound 249],< 5.00,< 5.00,< 5.00,> 7.00,6.00 to 7.00,6.00 to 7.00,> 10000 nM,100 to 1000 nM
Cc1cn2nc(NC(=O)c3ccc(N4CCNCC4)c4cn(C)nc34)nc2c(C)n1 [Compound 253],< 5.00,< 5.00,< 5.00,5.00 to 6.00,< 5.00,< 5.00,> 10000 nM,> 10000 nM
Cc1cn2cc(NC(=O)c3ccc(N4C[C@H]5CC[C@@H](C4)N5)c4cc(C)oc34)cc(F)c2n1 [Compound 255],5.00 to 6.00,< 5.00,5.00 to 6.00,> 7.00,6.00 to 7.00,6.00 to 7.00,1000 to 10000 nM,< 100 nM
CCN1CCC(c2ccc(C(=O)Nc3cc(F)c4nc(C)cn4c3)c3oc(C)cc23)CC1 [Compound 257],5.00 to 6.00,< 5.00,5.00 to 6.00,> 7.00,6.00 to 7.00,6.00 to 7.00,1000 to 10000 nM,100 to 1000 nM
Cc1cn2cc(NC(=O)c3ccc(N4C[C@H]5CC[C@@H](C4)N5)c4cn(C)nc34)cc(F)c2n1 [Compound 260],6.00 to 7.00,5.00 to 6.00,6.00 to 7.00,5.00 to 6.00,> 7.00,> 7.00,100 to 1000 nM,< 100 nM

# Further lines, with some results ahead:
pIC50 (HTT mRNA [1]),pIC50 (Target C mRNA),pIC50 (HTT mRNA [2]),pIC50 (SMN2 mRNA),pIC50 (MYB mRNA; [4]),pIC50 (MYB mRNA; [5]),SMILES,AC50 (HTT mRNA [2]),AC50 (MYB mRNA; [3])
6.00 to 7.00,5.00 to 6.00,6.00 to 7.00,> 7.00,> 7.00,> 7.00,Cc1cn2cc(NC(=O)c3ccc(N4CC5(CN(C)C5)C4)c4cn(C)nc34)cc(F)c2n1 [Compound 243],100 to 1000 nM,< 100 nM
5.00 to 6.00,< 5.00,5.00 to 6.00,> 7.00,> 7.00,> 7.00,Cc1cn2cc(NC(=O)c3ccc(N4CCNCC4)c4cn(C)nc34)ncc2n1 [Compound 246],1000 to 10000 nM,< 100 nM
< 5.00,< 5.00,< 5.00,< 5.00,< 5.00,< 5.00,Cc1cn2nc(NC(=O)c3ccc(N4CCNCC4)c4cn(C)nc34)cc2c(C)n1 [Compound 247],> 10000 nM,> 10000 nM
5.00 to 6.00,< 5.00,5.00 to 6.00,> 7.00,6.00 to 7.00,6.00 to 7.00,Cc1cn2cc(NC(=O)c3ccc(C4CCN(C)CC4)c4cc(C)oc34)cc(F)c2n1 [Compound 256],1000 to 10000 nM,100 to 1000 nM
5.00 to 6.00,5.00 to 6.00,5.00 to 6.00,> 7.00,> 7.00,> 7.00,Cc1cn2cc(NC(=O)c3ccc(N4CCC(N(C)C)C4)c4cn(C)nc34)cc(F)c2n1 (centres unmarked) [Compound 258],100 to 1000 nM,< 100 nM
5.00 to 6.00,5.00 to 6.00,5.00 to 6.00,> 7.00,6.00 to 7.00,6.00 to 7.00,Cc1cn2cc(NC(=O)c3ccc(N4CCC(NC(C)(C)C)CC4)c4cn(C)nc34)cc(F)c2n1 [Compound 259],1000 to 10000 nM,1000 to 10000 nM
